Test results: patent publication US12673052B2, “Combinations for the treatment of cancer” (Exelixis, Inc., priority 2020, dated 2026)
Values joined by “and” are separate entries in the source; they are usually repeats but may differ in a detail not shown here. Equal values may be shown once. Read-outs that look alike come from different tables or passages of the source.

Legend:
[1] = In vitro plasma protein binding; type: in vitro ADME; conditions: 0.2 and 1 μM
Protocol: (§1) Plasma PK of Compound 1 was characterized in rats and beagle dogs. Toxicokinetic (TK) evaluations of oral Compound 1 were evaluated in repeat-dose studies in rats and dogs. Plasma protein binding was determined in mouse, rat, dog, monkey, and human plasma in vitro. Biotransformation and metabolite profiling of Compound 1 were investigated in vitro using mouse, rat, dog, monkey, and human liver microsomal fractions and hepatocytes and in vivo in rats and dogs. P-glycoprotein (P-gp) and breast cancer resistance protein (BCRP) transporter interaction studies, in vitro experiments evaluating cytochrome P450 (CYP) induction and inhibition by Compound 1, and CYP and glucuronosyltransferase (UGT) substrate specificity studies of Compound 1 were also performed.
Compound 1 (10 μM) was 97.2 and 97.5% protein bound in monkey and human plasma, respectively.

VEGFR2 = VEGFR2 (Homo sapiens, UniProt P35968); test: RTK autophosphorylation ELISA, HUVEC stimulated with VEGF165; type: cell-based; parameters: cell lines (PC-3, HUVEC, and A-172) stimulated with ligands to their respective receptors to induce autophosphorylation (MET, VEGFR2, and AXL); endogenous in cells; host or cells: HUVEC; conditions: VEGFR2, ligand VEGF165; read-out: Cellular IC50
Protocol: The activity of Compound 1 was evaluated in cell-based assays that assessed the mechanistic effects of the compound in tumor and normal cells. Consistent with the biochemical data, Compound 1 is a potent inhibitor of cellular RTKs as assessed by analysis of receptor autophosphorylation as measured by enzyme-linked immunosorbent assay. Assays were performed using cell lines (PC-3, HUVEC, and A-172) stimulated with ligands to their respective receptors to induce autophosphorylation (MET, VEGFR2, and AXL) or a cell line (293A) transfected with an expression vector encoding the receptor of interest (MER). Inhibition of endogenous phosphorylated MET by Compound 1 in Hs 746T gastric carcinoma cells was also investigated due to the presence of the skip-splice mutation of exon 14 in the MET gene. This MET exon 14 alteration leads to increased MET stability and oncogenic activation, including constitutive MET phosphorylation. Also this mutation is known to occur in 3% of lung adenocarcinoma patients and to be sensitive to MET-targeted therapies (Frampton et al 2015).

[2] = Hepatocyte stability assay; type: in vitro ADME, monkey; conditions: hepatocytes
Protocol: In the liver microsomal stability assay, CLint was 0.601 mL/min/g liver in mouse, 0.563 mL/min/g liver in rat, 0.315 mL/min/g liver in dog, 0.734 mL/min/g liver in monkey, and 0.639 mL/min/g liver in human. In the hepatocyte stability assay, Compound 1 CLint was 0.373 mL/min/g liver in mouse, 0.285 mL/min/g liver in rat, 1.08 mL/min/g liver in dog, 0.533 mL/min/g liver in monkey, and 0.317 mL/min/g liver in human.

CYP2B6 = test: CYP/UGT substrate specificity (recombinant Supersomes, chemical inhibitors in human liver microsomes); type: in vitro ADME
Protocol: as §1

UGT1A4 = target: T1, UGT1A4 (Homo sapiens, UniProt P22310); test: as above; type: in vitro ADME
T1 construct: purchased; host or cells: recombinant Supersomes; human liver microsomes
Protocol: as §1

UGT1A9 = target: T2, UGT1A9 (Homo sapiens, UniProt O60656); test: as above; type: in vitro ADME
T2 construct: purchased; host or cells: recombinant Supersomes; human liver microsomes
Protocol: as §1

CYP3A4 = test: as above; type: in vitro ADME
Protocol: as §1

CYP2C9 = test: as above; type: in vitro ADME
Protocol: as §1

CYP1A2 = test: as above; type: in vitro ADME
Protocol: as §1

UGT1A1 = target: T3, UGT1A1 (Homo sapiens, UniProt P22309); test: as above; type: in vitro ADME
T3 construct: purchased; host or cells: recombinant Supersomes; human liver microsomes
Protocol: as §1

CYP2C19 = test: as above; type: in vitro ADME
Protocol: as §1

CYP2C8 = test: as above; type: in vitro ADME
Protocol: as §1

UGT2B7 = target: T4, UGT2B7 (Homo sapiens, UniProt P16662); test: as above; type: in vitro ADME
T4 construct: purchased; host or cells: recombinant Supersomes; human liver microsomes
Protocol: as §1

[3] = system: primary human macrophages; test: Efferocytosis: primary human macrophages cultured with apoptotic Jurkat cells; type: cell-based; conditions: read-out: Cellular IC50 (nM) (n = 2); one row per donor (#1-#5); geometric mean +/− geometric standard deviation
Protocol: In addition, the TAM RTKs are critical in the process of efferocytosis, or the recognition and phagocytosis of apoptotic cells that maintains normal tissue homeostasis. When efferocytosis is inhibited, macrophages engage a proinflammatory activation response. When primary human macrophages are cultured with apoptotic Jurkat cells in the presence of Compound 1, their phagocytic ability was inhibited in a dose dependent manner. In Table 5, the IC50 from 5 independent donors are listed.

[4] = Toxicokinetics in 28-day repeat-dose toxicity study; type: in vivo, rats; conditions: for half-life: oral, read-out: Half-life (t1/2)
Protocol: In a 28-day repeat-dose toxicity study in rats dosed orally daily with Compound 1 at 1, 3 or 10 mg/kg, Compound 1 exposure (Cmax and AUC0-24) increased with the increase in dose level from 1-10 mg/kg/day. […] Accumulation ratio values ranged from 0.721-1.14 for Cmax and from 0.722-0.891 for AUC0-24. Consistent with the single-dose PK data, exposure in rats at steady-state on Day 28 for low doses appeared to be approximately 20-fold higher than that observed in dogs.

[5] = Day 28 vs Day 1, 1-10 mg/kg/day

T1 sequence (P22310 29-534): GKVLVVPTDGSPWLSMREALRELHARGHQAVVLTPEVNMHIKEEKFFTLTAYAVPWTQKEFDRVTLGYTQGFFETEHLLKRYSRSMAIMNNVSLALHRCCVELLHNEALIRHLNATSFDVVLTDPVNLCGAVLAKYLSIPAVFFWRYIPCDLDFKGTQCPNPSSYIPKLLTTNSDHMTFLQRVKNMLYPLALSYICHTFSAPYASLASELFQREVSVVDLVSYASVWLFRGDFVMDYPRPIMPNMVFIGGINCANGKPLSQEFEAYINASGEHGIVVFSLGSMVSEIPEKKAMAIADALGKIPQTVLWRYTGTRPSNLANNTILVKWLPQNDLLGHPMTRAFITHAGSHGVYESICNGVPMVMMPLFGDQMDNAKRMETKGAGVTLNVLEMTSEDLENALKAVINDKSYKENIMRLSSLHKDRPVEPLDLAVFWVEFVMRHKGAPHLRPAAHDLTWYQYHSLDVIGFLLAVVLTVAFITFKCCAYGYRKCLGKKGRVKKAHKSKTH
T3 sequence (P22309 26-533): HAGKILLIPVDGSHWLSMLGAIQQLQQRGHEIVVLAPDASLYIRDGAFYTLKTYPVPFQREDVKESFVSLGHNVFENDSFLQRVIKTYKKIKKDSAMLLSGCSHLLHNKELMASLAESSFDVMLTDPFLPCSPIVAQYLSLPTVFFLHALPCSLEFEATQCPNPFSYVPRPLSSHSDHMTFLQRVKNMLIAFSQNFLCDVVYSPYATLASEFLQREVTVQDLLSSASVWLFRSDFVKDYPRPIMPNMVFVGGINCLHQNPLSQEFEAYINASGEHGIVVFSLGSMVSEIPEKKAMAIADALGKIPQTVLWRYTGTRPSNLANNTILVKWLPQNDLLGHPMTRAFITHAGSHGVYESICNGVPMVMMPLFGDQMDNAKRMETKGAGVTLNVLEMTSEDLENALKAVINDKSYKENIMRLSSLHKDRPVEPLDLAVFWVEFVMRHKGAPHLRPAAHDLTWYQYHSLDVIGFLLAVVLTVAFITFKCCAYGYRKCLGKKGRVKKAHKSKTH
T4 sequence (P16662 24-529): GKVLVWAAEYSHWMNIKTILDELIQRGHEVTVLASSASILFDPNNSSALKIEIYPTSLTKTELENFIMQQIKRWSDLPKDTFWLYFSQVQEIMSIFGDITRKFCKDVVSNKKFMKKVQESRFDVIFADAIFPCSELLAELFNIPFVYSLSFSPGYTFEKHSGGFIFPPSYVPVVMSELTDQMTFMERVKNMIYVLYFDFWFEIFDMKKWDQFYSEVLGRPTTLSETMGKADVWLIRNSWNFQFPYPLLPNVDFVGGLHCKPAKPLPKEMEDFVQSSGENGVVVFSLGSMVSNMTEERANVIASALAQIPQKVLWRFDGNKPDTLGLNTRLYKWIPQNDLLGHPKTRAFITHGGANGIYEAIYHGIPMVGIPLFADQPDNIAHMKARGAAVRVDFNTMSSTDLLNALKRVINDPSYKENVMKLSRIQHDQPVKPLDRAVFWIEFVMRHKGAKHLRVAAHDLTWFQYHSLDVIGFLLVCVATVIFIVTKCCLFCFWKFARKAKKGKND
T2 sequence (O60656 26-530): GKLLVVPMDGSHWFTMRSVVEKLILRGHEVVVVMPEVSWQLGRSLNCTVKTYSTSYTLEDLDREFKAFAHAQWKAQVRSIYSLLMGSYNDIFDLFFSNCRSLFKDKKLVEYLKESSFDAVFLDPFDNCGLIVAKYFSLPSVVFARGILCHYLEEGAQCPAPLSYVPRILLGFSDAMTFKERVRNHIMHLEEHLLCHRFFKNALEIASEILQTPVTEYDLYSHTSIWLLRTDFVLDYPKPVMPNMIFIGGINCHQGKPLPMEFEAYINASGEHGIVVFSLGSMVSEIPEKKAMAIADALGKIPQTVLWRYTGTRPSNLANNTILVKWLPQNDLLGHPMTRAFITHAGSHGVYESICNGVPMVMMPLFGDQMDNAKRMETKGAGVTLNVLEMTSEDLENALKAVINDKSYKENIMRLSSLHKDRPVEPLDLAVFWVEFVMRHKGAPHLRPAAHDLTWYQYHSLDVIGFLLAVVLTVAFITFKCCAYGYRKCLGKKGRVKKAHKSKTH
Sequence of VEGFR2 (P35968 20-1356): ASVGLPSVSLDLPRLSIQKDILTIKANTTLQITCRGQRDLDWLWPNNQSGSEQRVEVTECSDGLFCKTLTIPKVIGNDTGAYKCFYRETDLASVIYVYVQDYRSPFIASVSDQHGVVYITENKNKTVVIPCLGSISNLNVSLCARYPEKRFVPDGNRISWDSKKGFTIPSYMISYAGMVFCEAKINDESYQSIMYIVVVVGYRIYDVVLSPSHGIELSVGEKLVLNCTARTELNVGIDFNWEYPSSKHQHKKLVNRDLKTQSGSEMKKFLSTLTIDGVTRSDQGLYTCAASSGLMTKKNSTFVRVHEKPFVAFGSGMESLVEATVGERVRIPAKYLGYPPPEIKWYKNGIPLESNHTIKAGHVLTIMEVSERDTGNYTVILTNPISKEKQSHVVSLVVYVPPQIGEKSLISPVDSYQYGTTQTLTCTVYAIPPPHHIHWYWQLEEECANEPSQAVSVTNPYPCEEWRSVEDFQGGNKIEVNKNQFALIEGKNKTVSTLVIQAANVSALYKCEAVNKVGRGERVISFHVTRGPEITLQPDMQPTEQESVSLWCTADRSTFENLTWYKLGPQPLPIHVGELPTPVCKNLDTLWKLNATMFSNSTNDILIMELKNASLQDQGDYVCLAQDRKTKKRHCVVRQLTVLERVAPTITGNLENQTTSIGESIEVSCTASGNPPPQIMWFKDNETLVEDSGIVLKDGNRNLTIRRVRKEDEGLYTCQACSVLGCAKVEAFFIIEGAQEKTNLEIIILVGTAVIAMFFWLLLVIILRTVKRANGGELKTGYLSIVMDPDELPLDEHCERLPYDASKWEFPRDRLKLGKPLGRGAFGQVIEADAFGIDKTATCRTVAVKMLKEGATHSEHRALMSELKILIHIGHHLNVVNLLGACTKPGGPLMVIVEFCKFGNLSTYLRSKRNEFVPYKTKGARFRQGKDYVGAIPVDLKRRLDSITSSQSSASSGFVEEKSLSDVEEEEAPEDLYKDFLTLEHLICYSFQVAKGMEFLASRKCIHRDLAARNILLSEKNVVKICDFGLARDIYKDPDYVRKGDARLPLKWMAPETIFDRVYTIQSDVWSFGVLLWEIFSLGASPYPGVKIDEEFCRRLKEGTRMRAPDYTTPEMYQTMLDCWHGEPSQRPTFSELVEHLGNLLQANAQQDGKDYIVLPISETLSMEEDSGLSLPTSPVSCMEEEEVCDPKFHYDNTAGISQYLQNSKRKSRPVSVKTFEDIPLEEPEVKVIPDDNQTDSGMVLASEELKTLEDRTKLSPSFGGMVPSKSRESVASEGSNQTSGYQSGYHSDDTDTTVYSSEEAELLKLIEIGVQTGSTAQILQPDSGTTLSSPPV

Q: What does the source list for CNC(=O)c1cc2c(Oc3ccc(NC(=O)C4(C(=O)Nc5ccc(F)cc5)CC4)cc3)ccnc2cc1OC [Compound 1, 1-N′-(4-Fluorophenvl)-1-N-[4-[7-methoxy-6-(methylcarbamovl)quinolin-4-yl]oxyphenyl]cyclopropane-1,1-dicarboxamide]?
A: fraction unbound ([1]; dog): < 0.01; fraction unbound ([1]; mouse): < 0.01; fraction unbound ([1]; rat): < 0.01; IC50 (VEGFR2): 1.5 nM; CLint [2]: 0.533 mL/min/g liver; substrate of enzyme (CYP2B6): not to be a substrate; role in Compound 1 metabolism (UGT1A4): may play a minor role; substrate of enzyme (UGT1A9): not to be a substrate; substrate of enzyme (CYP3A4): sensitive substrate; substrate of enzyme (CYP2C9): weaker substrate; substrate of enzyme (CYP1A2): not to be a substrate; substrate of enzyme (UGT1A1): not to be a substrate; substrate of enzyme (CYP2C19): not to be a substrate; role in the metabolism of Compound 1 (CYP2C8): only a minor role; substrate of enzyme (UGT2B7): not to be a substrate; IC50 [3]: 42.7 nM and 45.1 nM and 44 nM and 96.5 nM and 181 nM; Sex differences in mean Cmax and AUC values ([4]; 28-day study): less than 2 fold; steady-state exposure in rats relative to dogs ([4]; Day 28, dose-normalized AUC0-24, ss, higher in rats): approximately 20 fold; Accumulation ratio for AUC0-24 [4, 5]: 0.722-0.891; Accumulation ratio for Cmax [4, 5]: 0.721-1.14; half-life ([4]; both sexes, rat, plasma, Day 1): 3.51 to 3.7 h; half-life ([4]; both sexes, rat, plasma, Day 28): 6.7 to 8.97 h; Tmax ([4]; both sexes, rat, plasma, oral daily 1, 3 or 10 mg/kg, Days 1 and 28): 2 to 8 h
